# Columns and labels:
# [1] = test system: OVCAR-5; assay: NCI one-dose screening, ovarian cancer OVCAR-5; type: cell-based, human; details: OVCAR-5, 10 μM
# [2] = test system: IGROV1; assay: NCI one-dose screening, ovarian cancer IGROV1; type: cell-based, human; details: IGROV1, 10 μM
# [3] = test system: SF-295; assay: NCI one-dose screening, CNS cancer SF-295; type: cell-based, human; details: SF-295, 10 μM
# [4] = test system: UACC-62; assay: NCI one-dose screening, melanoma UACC-62; type: cell-based, human; details: UACC-62, 10 μM
# [5] = test system: PC-3 prostate cancer cell line; assay: SRB assay cell viability, PC-3 prostate cancer cell line; type: cell-based, human; details: Homo sapiens, PC-3 prostate cancer cell line, Table II prints no unit, μM printed, read-out: SRB assay: 50% inhibition of cancer cell proliferation of sample concentration (IC50) of PC-3 prostate cancer cell line
# [6] = test system: 786-O; assay: NCI one-dose screening, renal cancer 786-O; type: cell-based, human; details: 786-0, 10 μM
# [7] = test system: SNB-19; assay: NCI one-dose screening, CNS cancer SNB-19; type: cell-based, human; details: SNB-19, 10 μM
# [8] = test system: MDA-MB-231/ATCC; assay: NCI one-dose screening, breast cancer MDA-MB-231/ATCC; type: cell-based, human; details: MDA-MB-231/ATCC
# [9] = test system: CCRF-CEM; assay: NCI screening platform one-dose single concentration screening, leukemia CCRF-CEM; type: cell-based, human; details: CCRF-CEM
# [10] = test system: human tumor cell lines; assay: NCI one-dose screening, mean, delta and range of growth percent over all cell lines tested; type: cell-based
# [11] = test system: EKVX; assay: NCI one-dose screening, non-small cell lung cancer EKVX; type: cell-based, human; details: EKVX
# [12] = test system: SK-MEL-5; assay: NCI one-dose screening, melanoma SK-MEL-5; type: cell-based, human; details: SK-MEL-5, 10 μM
# [13] = test system: MDA, -MB-435; assay: NCI one-dose screening, breast cancer MDA, -MB-435; type: cell-based, human; details: Melanoma, MDA-MB-435, 10 μM
# [14] = test system: HS 578-T; assay: NCI one-dose screening, breast cancer HS 578-T; type: cell-based, human; details: Breast cancer, HS 578T, 10 μM
# [15] = test system: SF-539; assay: NCI one-dose screening, CNS cancer SF-539; type: cell-based, human; details: SF-539, 10 μM
# [16] = test system: ACHN; assay: NCI one-dose screening, renal cancer ACHN; type: cell-based, human; details: ACHN
# [17] = test system: HCT-15; assay: NCI one-dose screening, colon cancer HCT-15; type: cell-based, human; details: HCT-15, 10 μM
# [18] = test system: LOX IMVI; assay: NCI one-dose screening, melanoma LOX IMVI; type: cell-based, human; details: LOX IMVI
# [19] = test system: KM12; assay: NCI one-dose screening, colon cancer KM12; type: cell-based, human; details: KM12, 10 μM
# [20] = test system: SNB-75; assay: NCI one-dose screening, CNS cancer SNB-75; type: cell-based, human; details: SNB-75, 10 μM
# [21] = test system: NCI-H460; assay: NCI one-dose screening, non-small cell lung cancer NCI-H460; type: cell-based, human; details: NCI-H460, 10 μM
# [22] = test system: SK-MEL-2; assay: NCI one-dose screening, melanoma SK-MEL-2; type: cell-based, human; details: SK-MEL-2, 10 μM
# [23] = test system: UO-31; assay: NCI one-dose screening, renal cancer UO-31; type: cell-based, human; details: UO-31, 10 μM
# [24] = test system: DU145; assay: NCI one-dose screening, prostate cancer DU145; type: cell-based, human; details: DU145, 10 μM
# [25] = test system: NCl/ADR-RES; assay: NCI one-dose screening, breast cancer NCl/ADR-RES; type: cell-based, human; details: Ovarian cancer, NCI/ADR-RES
# [26] = test system: HT29; assay: NCI one-dose screening, colon cancer HT29; type: cell-based, human; details: HT29, 10 μM
# [27] = test system: HCC-2998; assay: NCI one-dose screening, colon cancer HCC-2998; type: cell-based, human; details: HCC-2998, 10 μM
# [28] = test system: NCI-H226; assay: NCI one-dose screening, non-small cell lung cancer NCI-H226; type: cell-based, human; details: NCI-H226, 10 μM
# [29] = test system: NCI-H322M; assay: NCI one-dose screening, non-small cell lung cancer NCI-H322M; type: cell-based, human; details: Non-small cell lung cancer, NCI-H322M, 10 μM
# [30] = test system: PC-3; assay: NCI one-dose screening, prostate cancer PC-3; type: cell-based, human; details: PC-3, 10 μM
# [31] = test system: SF-268; assay: NCI one-dose screening, CNS cancer SF-268; type: cell-based, human; details: SF-268, 10 μM
# [32] = test system: NCI-H23; assay: NCI one-dose screening, non-small cell lung cancer NCI-H23; type: cell-based, human; details: NCI-H23, 10 μM
# [33] = test system: CAKI-1; assay: NCI one-dose screening, renal cancer CAKI-1; type: cell-based, human; details: CAKI-1, 10 μM
# [34] = test system: NCI-H522; assay: NCI one-dose screening, non-small cell lung cancer NCI-H522; type: cell-based, human; details: NCI-H522, 10 μM
# [35] = test system: U251; assay: NCI one-dose screening, CNS cancer U251; type: cell-based, human; details: U251, 10 μM
# [36] = test system: MCF7; assay: NCI one-dose screening, breast cancer MCF7; type: cell-based, human; details: MCF7, 10 μM
# [37] = test system: UACC-257; assay: NCI one-dose screening, melanoma UACC-257; type: cell-based, human; details: UACC-257, 10 μM
# [38] = test system: T-47D; assay: NCI one-dose screening, breast cancer T-47D; type: cell-based, human; details: T-47D
# [39] = test system: COLO 205; assay: NCI one-dose screening, colon cancer COLO 205; type: cell-based, human; details: COLO 205, 10 μM
# [40] = test system: OVCAR-4; assay: NCI one-dose screening, ovarian cancer OVCAR-4; type: cell-based, human; details: OVCAR-4, 10 μM
# [41] = test system: K562cell line; assay: NCI one-dose screening, leukemia K562; type: cell-based, human; details: K562, 10 μM
# [42] = test system: HL-60, TB; assay: NCI one-dose screening, leukemia HL-60, TB; type: cell-based, human; details: HL-60(TB)
# [43] = test system: RXF, 393; assay: NCI one-dose screening, renal cancer RXF, 393; type: cell-based, human; details: RXF 393, 10 μM
smiles,measurement,setting,value
"Cc1ccc(Nc2cc3c(c4nsnc24)C(=O)c2ccccc2C3=O)cc1 [C64, 4-(p-tolylamino)anthra[2,1-c][1,2,5] thiadiazol-6,11-dione]",Growth Percent (10 μM),[1],109.85%
same,Growth Percent (10 μM),[2],49.40%
same,Growth Percent (10 μM),[3],75.76%
same,Growth Percent (10 μM),[4],67.41%
same,IC50,[5],0.84 µM
same,Growth Percent (10 μM),[6],74.18%
same,Growth Percent (10 μM),[7],82.28%
same,Growth Percent (10 μM),[8],73.83%
same,Growth Percent (10 μM),[9],59.59%
same,"Growth Percent (10 μM), Delta",[10]; Delta over all cell lines tested,48.49%
same,"Growth Percent (10 μM), Mean",[10]; Mean over all cell lines tested,61.35%
same,"Growth Percent (10 μM), Range",[10]; Range over all cell lines tested,96.99%
same,Growth Percent (10 μM),[11],82.17%
same,Growth Percent (10 μM),[12],24.13%
same,Growth Percent (10 μM),[13],65.53%
same,Growth Percent (10 μM),[14],78.75%
same,Growth Percent (10 μM),[15],70.48%
same,Growth Percent (10 μM),[16],57.60%
same,Growth Percent (10 μM),[17],32.24%
same,Growth Percent (10 μM),[18],27.05%
same,Growth Percent (10 μM),[19],64.56%
same,Growth Percent (10 μM),[20],80.91%
same,Growth Percent (10 μM),[21],21.80%
same,Growth Percent (10 μM),[22],93.85%
same,Growth Percent (10 μM),[23],56.97%
same,Growth Percent (10 μM),[24],68.26%
same,Growth Percent (10 μM),[25],61.34%
same,Growth Percent (10 μM),[26],96.29%
same,Growth Percent (10 μM),[27],95.82%
same,Growth Percent (10 μM),[28],66.61%
same,Growth Percent (10 μM),[29],94.85%
same,Growth Percent (10 μM),[30],45.73%
same,Growth Percent (10 μM),[31],52.27%
same,Growth Percent (10 μM),[32],45.87%
same,Growth Percent (10 μM),[33],50.33%
same,Growth Percent (10 μM),[34],53.06%
same,Growth Percent (10 μM),[35],34.17%
same,Growth Percent (10 μM),[36],46.59%
same,Growth Percent (10 μM),[37],71.17%
same,Growth Percent (10 μM),[38],64.48%
same,Growth Percent (10 μM),[39],100.68%
same,Growth Percent (10 μM),[40],31.44%
same,Growth Percent (10 μM),[41],33.45%
same,Growth Percent (10 μM),[42],46.13%
same,Growth Percent (10 μM),[43],71.05%

# — patent US8877748B2, “Heterocyclic fused anthraquinone derivatives, manufacturing method and pharmaceutical composition using thereof” (National Defense Medical Center, priority 2012, dated 2014)
